According to patent US7655392B2, “Quenching methods for red blood cell inactivation process” (priority 2004, dated 2010):
Like-named read-outs stand apart in the source and are kept apart here.

What was measured:
Serratia marcescens = type: cell-based
[1] = tested on: Vesicular Stomatitis Virus (VSV); type: cell-based
red blood cells = tested on: red blood cells
Source text: Methods for determining ATP, 2,3-DPG, glucose, hemoglobin, hemolysis, and potassium are available in the art. See for example, Davey et al., Transfusion, 32:525-528 (1992), the disclosure of which is incorporated herein. Methods for determining red blood cell function are also described in Greenwalt et al., Vox Sang, 58:94-99 (1990); Hogman et al., Vox Sang, 65:271-278 (1993); and Beutler et al., Blood, Vol. 59 (1982) the disclosures of which are incorporated herein by reference. For example, intracellular ATP and intracellular 2,3-DPG are measured using a Sigma ATP kit or 2,3-DPG kit (Sigma, St. Louis, Mo.). The ATP kit is used following Sigma procedure No. 366-UV, the disclosure of which is hereby incorporated by reference. […] The extracellular pH is measured by centrifuging the cells at 4° C. for 15 minutes at 12,000×g and removing the supernatant, for which the pH is measured using a standard pH meter at room temperature (e.g. Beckman, Epoxy Calomel electrode). For the intracellular pH, the remaining pellet is capped in the centrifuge tube and stored at about −80° C. for at least 2 hours. This is then lysed by the addition of deionized water. […] Measurements can be made shortly after treatment and as a function of post treatment storage, for example storage for up to 42 days.
Full units of red cell concentrates (Interstate Blood Bank, Inc., Memphis, Tenn.) were leukoreduced. A volume of 200 mL of this RCC (80% hematocrit) was mixed with 94 mL of Erythrosol or 100 mL of Adsol (Baxter Healthcare Corp., Deerfield, Ill.) as control (unit 1). A volume of 20 mL 8% dextrose was used to dissolve PIC-1 (mg) and acid glutathione (mg) and added to one unit to provide 0.2 mM PIC-1 and 2 mM glutathione (unit 2). […] For the glutathione, 1.2 mL of 10 N NaOH was added (2 equivalents). The PIC-1 was mixed with the unit, followed 1 minute later (unit 3) or 5 minutes later (unit 4) by glutathione. For unit 5, neutralized glutathione was mixed first, followed 10 minutes later by the PIC-1. […] All units were mixed by grasping the ends of the blood bag and mixing in a FIG. 8 motion 30 times. These were then incubated at room temperature for 20 hours total. A compound adsorption device (CAD), comprising a polymeric resin contained within a mesh pouch, was used for all but the control sample. This device is intended to remove residual PIC-1, PIC-1 breakdown products, and glutathione from the samples. Samples were incubated for 8 hours, then transferred to a second blood bag containing the CAD and incubated for an additional 12 hours. Following the room temperature incubation, samples were transferred to a refrigerator (4° C.) and stored up to 43 days. Aliquots were removed from each unit 12 hours and 20 hours post mixing, and every week thereafter. Aliquots were analyzed for total hemoglobin, pH, intracellular ATP, plasma hemoglobin, potassium, extracellular glucose and extracellular lactate.

[2] = Table 5B: 15 mM Cys+2 eq base, then 0.2 mM PIC-1 after 10 min
[3] = Table 5B: 20 mM Cys+2 eq base, then 0.2 mM PIC-1 after 5 min
[4] = Table 5B: 20 mM Cys+2 eq base, then 0.2 mM PIC-1 after 10 min
[5] = Table 5B: 20 mM GSH+2 eq base, then 0.2 mM PIC-1 after 10 min
[6] = Table 5B: […] Cys+2 eq base, then 0.2 mM PIC-1 after 10 min

**Q.** Which “Log S. marcescens reduction” value (Serratia marcescens; [2]) does the source give for `O=C(CCNc1c2ccccc2nc2ccccc12)OCCN(CCCl)CCCl` [PIC-1] here?
**A.** 3.1 Log

**Q.** What about the “Log S. marcescens titer” value (Serratia marcescens; [2]) of the same compound?
**A.** 4.5 Log

**Q.** And the “Log S. marcescens reduction” value (Serratia marcescens; [3])?
**A.** 3.2 Log

**Q.** What about the “Log S. marcescens titer” value (Serratia marcescens; [3]) of the same compound?
**A.** 4.4 Log

**Q.** And the “Log S. marcescens reduction” value (Serratia marcescens; [4])?
**A.** 3.0 Log

**Q.** What about the “Log S. marcescens titer” value (Serratia marcescens; [4]) of the same compound?
**A.** 4.6 Log

**Q.** What about the “Log S. marcescens reduction” value (Serratia marcescens; [5]) of the same compound?
**A.** 3.2 Log

**Q.** What about the “Log S. marcescens titer” value (Serratia marcescens; [5]) of the same compound?
**A.** 4.4 Log

**Q.** And the “Log S. marcescens reduction” value (Serratia marcescens; [6])?
**A.** 3.7 Log

**Q.** What about the “Log S. marcescens titer” value (Serratia marcescens; [6]) of the same compound?
**A.** 3.9 Log

**Q.** What about the log inactivation (Serratia marcescens; all conditions of Tables 5A, 5B, 5C (cysteine and/or glutathione, 0.2 mM PIC-1)) of the same compound?
**A.** at least 3 log

**Q.** And the “inactivation difference from the standard condition” value (Serratia marcescens; cysteine or glutathione quenching, Tables 5A-5C)?
**A.** 1-1.5 log

**Q.** What about the “inactivation of a high titer of VSV” value [1] of the same compound?
**A.** essentially complete inactivation

**Q.** What about the “Percent Hemolysis” value (red blood cells; 16B day 0, sample 2: standard 0.2 mM PIC-1+2 mM GSH) of the same compound?
**A.** 0.22%

**Q.** What about the “Percent Hemolysis” value (red blood cells; 16B day 0, sample 3: 0.2 mM PIC-1, 1' delay, 20 mM GSH+2 eq base) of the same compound?
**A.** 0.19%

**Q.** What about the “Percent Hemolysis” value (red blood cells; 16B day 0, sample 4: 0.2 mM PIC-1, 5' delay, 20 mM GSH+2 eq base) of the same compound?
**A.** 0.19%

**Q.** What about the “Percent Hemolysis” value (red blood cells; 16B day 0, sample 5: 20 mM GSH+2 eq base, 10' delay, 0.2 mM PIC-1) of the same compound?
**A.** 0.19%

**Q.** What about the “Percent Hemolysis” value (red blood cells; 16B day 0.5, sample 2: standard 0.2 mM PIC-1+2 mM GSH) of the same compound?
**A.** 0.24%

**Q.** What about the “Percent Hemolysis” value (red blood cells; 16B day 0.5, sample 3: 0.2 mM PIC-1, 1' delay, 20 mM GSH+2 eq base) of the same compound?
**A.** 0.16%

**Q.** What about the “Percent Hemolysis” value (red blood cells; 16B day 0.5, sample 4: 0.2 mM PIC-1, 5' delay, 20 mM GSH+2 eq base) of the same compound?
**A.** 0.25%

**Q.** And the “Percent Hemolysis” value (red blood cells; 16B day 0.5, sample 5: 20 mM GSH+2 eq base, 10' delay, 0.2 mM PIC-1)?
**A.** 0.24%

**Q.** And the “Percent Hemolysis” value (red blood cells; 16B day 0.8, sample 2: standard 0.2 mM PIC-1+2 mM GSH)?
**A.** 0.46%

**Q.** And the “Percent Hemolysis” value (red blood cells; 16B day 0.8, sample 3: 0.2 mM PIC-1, 1' delay, 20 mM GSH+2 eq base)?
**A.** 0.40%

**Q.** What about the “Percent Hemolysis” value (red blood cells; 16B day 0.8, sample 4: 0.2 mM PIC-1, 5' delay, 20 mM GSH+2 eq base) of the same compound?
**A.** 0.48%

**Q.** What about the “Percent Hemolysis” value (red blood cells; 16B day 0.8, sample 5: 20 mM GSH+2 eq base, 10' delay, 0.2 mM PIC-1) of the same compound?
**A.** 0.47%

**Q.** What about the “Percent Hemolysis” value (red blood cells; 16B day 7, sample 2: standard 0.2 mM PIC-1+2 mM GSH) of the same compound?
**A.** 0.62%

**Q.** And the “Percent Hemolysis” value (red blood cells; 16B day 7, sample 3: 0.2 mM PIC-1, 1' delay, 20 mM GSH+2 eq base)?
**A.** 0.35%

**Q.** And the “Percent Hemolysis” value (red blood cells; 16B day 7, sample 4: 0.2 mM PIC-1, 5' delay, 20 mM GSH+2 eq base)?
**A.** 0.52%

**Q.** And the “Percent Hemolysis” value (red blood cells; 16B day 7, sample 5: 20 mM GSH+2 eq base, 10' delay, 0.2 mM PIC-1)?
**A.** 0.57%

**Q.** What about the “Percent Hemolysis” value (red blood cells; 16B day 14, sample 2: standard 0.2 mM PIC-1+2 mM GSH) of the same compound?
**A.** 0.69%

**Q.** And the “Percent Hemolysis” value (red blood cells; 16B day 14, sample 3: 0.2 mM PIC-1, 1' delay, 20 mM GSH+2 eq base)?
**A.** 0.50%

**Q.** And the “Percent Hemolysis” value (red blood cells; 16B day 14, sample 4: 0.2 mM PIC-1, 5' delay, 20 mM GSH+2 eq base)?
**A.** 0.52%

**Q.** And the “Percent Hemolysis” value (red blood cells; 16B day 14, sample 5: 20 mM GSH+2 eq base, 10' delay, 0.2 mM PIC-1)?
**A.** 0.55%

**Q.** And the “Percent Hemolysis” value (red blood cells; 16B day 22, sample 2: standard 0.2 mM PIC-1+2 mM GSH)?
**A.** 0.87%

**Q.** And the “Percent Hemolysis” value (red blood cells; 16B day 22, sample 3: 0.2 mM PIC-1, 1' delay, 20 mM GSH+2 eq base)?
**A.** 0.59%

**Q.** What about the “Percent Hemolysis” value (red blood cells; 16B day 22, sample 4: 0.2 mM PIC-1, 5' delay, 20 mM GSH+2 eq base) of the same compound?
**A.** 0.62%

**Q.** What about the “Percent Hemolysis” value (red blood cells; 16B day 22, sample 5: 20 mM GSH+2 eq base, 10' delay, 0.2 mM PIC-1) of the same compound?
**A.** 0.63%

**Q.** And the “Percent Hemolysis” value (red blood cells; 16B day 28, sample 2: standard 0.2 mM PIC-1+2 mM GSH)?
**A.** 0.86%

**Q.** What about the “Percent Hemolysis” value (red blood cells; 16B day 28, sample 3: 0.2 mM PIC-1, 1' delay, 20 mM GSH+2 eq base) of the same compound?
**A.** 0.63%

**Q.** What about the “Percent Hemolysis” value (red blood cells; 16B day 28, sample 4: 0.2 mM PIC-1, 5' delay, 20 mM GSH+2 eq base) of the same compound?
**A.** 0.64%

**Q.** And the “Percent Hemolysis” value (red blood cells; 16B day 28, sample 5: 20 mM GSH+2 eq base, 10' delay, 0.2 mM PIC-1)?
**A.** 0.65%

**Q.** And the “Percent Hemolysis” value (red blood cells; 16B day 35, sample 2: standard 0.2 mM PIC-1+2 mM GSH)?
**A.** 0.99%

**Q.** What about the “Percent Hemolysis” value (red blood cells; 16B day 35, sample 3: 0.2 mM PIC-1, 1' delay, 20 mM GSH+2 eq base) of the same compound?
**A.** 0.74%

**Q.** And the “Percent Hemolysis” value (red blood cells; 16B day 35, sample 4: 0.2 mM PIC-1, 5' delay, 20 mM GSH+2 eq base)?
**A.** 0.76%

**Q.** What about the “Percent Hemolysis” value (red blood cells; 16B day 35, sample 5: 20 mM GSH+2 eq base, 10' delay, 0.2 mM PIC-1) of the same compound?
**A.** 0.71%

**Q.** And the “Percent Hemolysis” value (red blood cells; 16B day 43, sample 2: standard 0.2 mM PIC-1+2 mM GSH)?
**A.** 1.17%

**Q.** And the “Percent Hemolysis” value (red blood cells; 16B day 43, sample 3: 0.2 mM PIC-1, 1' delay, 20 mM GSH+2 eq base)?
**A.** 0.82%

**Q.** What about the “Percent Hemolysis” value (red blood cells; 16B day 43, sample 4: 0.2 mM PIC-1, 5' delay, 20 mM GSH+2 eq base) of the same compound?
**A.** 0.90%

**Q.** What about the “Percent Hemolysis” value (red blood cells; 16B day 43, sample 5: 20 mM GSH+2 eq base, 10' delay, 0.2 mM PIC-1) of the same compound?
**A.** 0.83%
